Patent US7071218B2, “N-substituted heterocycles for the treatment of hypercholesteremia, dyslipidemia and other metabolic disorders; cancer, and other diseases” (Incyte San Diego Incorporated, priority 2001, dated 2006)

Experiments:
[1] = molecular target: T1, PPARγ (Homo sapiens, UniProt P37231); assay: In vitro transactivation assay in CV-1 cells, antagonism of BRL49653-induced Gal-PPARγ activation; format: cell-based; settings: with 1 μM agonist BRL49653, dose-dependent
T1 construct: expressed in transfected cells; host or cells: CV-1 (green monkey kidney) cells, transient calcium phosphate transfection
T1 sequence (P37231 238-503 limits assumed): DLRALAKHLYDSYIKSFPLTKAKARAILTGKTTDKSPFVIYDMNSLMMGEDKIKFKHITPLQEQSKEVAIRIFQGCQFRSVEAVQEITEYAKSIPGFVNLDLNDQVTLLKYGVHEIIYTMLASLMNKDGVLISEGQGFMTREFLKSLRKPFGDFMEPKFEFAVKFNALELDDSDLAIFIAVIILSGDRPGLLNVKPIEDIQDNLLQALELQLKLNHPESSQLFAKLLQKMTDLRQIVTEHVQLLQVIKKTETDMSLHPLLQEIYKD
From the text: In vitro screens such as the transactivation assay can be used to measure the ability of a compound to inhibit a nuclear receptor regulating lipid or carbohydrate uptake, synthesis or metabolism. In the assay described herein compounds can be identified that can inhibit activation of the following nuclear receptors: LXR, PPARα, PPARγ and FXR. This activity can be useful to treat lipid disorders such as hypercholesteremia and obesity.
Cell line: Kidney Green Monkey CV-1 cells.
Growing culturing medium: Dulbecco's modified Eagle's medium (DMEM) supplememnted with 10% fetal calf serum (FCS).
Procedure: CV-1 cells were plated in 48 well-plate culture plates, at a density of 10,000 cells/well, 24 h prior to transfection. One to three hours before transfection, cells were fed with fresh medium. A modified calcium phosphate precipitation procedure was used for transient transfection (Pfahl, M. et al., 1990, Methods in Enzymology 189: 256).
Typically, 40 ng reporter plasmid and 20 ng of each receptor expression vector were mixed, together with 10 ng of β-galactosidase control plasmid (pCH110, Pharmacia, Piscataway, N.J.) and Bluescript plasmid to obtain a total of 400 ng DNA per well. To this mixture 1 μl of 2.5M CaCl2 and 10 μl of BBS buffer, pH 6.95, were added afterward. […]

[2] = tested on: human cancer cell lines (A549, MDA-MB-468, PC-3, Bx-PC3); assay: MTT anti-cancer assay, the other cancer cell lines of the panel; format: cell-based; settings: at 10 μM, 6 days, cell lines other than MDA-MB-468 (A549, PC-3, Bx-PC3)
From the text: The anti-cancer activity of the compounds of the invention herein have been tested in in vitro assays using a microculture assay with 3-(4,5-dimethylthiazol-2-yl)-2,5-diphenyltetrazolium bromide (“MTT”) a test well known to those skilled in the art. This assay has an advantage over in vivo assay in that results are obtained within a week as opposed to several months. The assay can be carried out in 96-well microtiter plates. The MTT assay is based on the production of a dark blue formazan product by dehydrogenase in the mitochondria of live tumor cells after exposure to drug for 6 days [M. C. […] Thus, only live cells are stained and can be measured at 595 nm. […]
Treatment: Before commencing drug treatment, cells were replenished with media containing 0.5% FCS. […] As an end point, the amount of surviving cells (Live cells) was measured using a standard […] assay (MTT based), and calculated as percentage of cells treated with vehicle (DMSO) alone (% control).
MTT assay: The assay is based on the cleavage of the yellow tetrazolium salt MTT to purple formazan crystals by dehydrogenase activity in active mitochondria. […] The formazan crystals formed are solubilized and the resulting colored solution is quantified using a scanning multiwell spectrophotometer. […]

inhibition at 10 µM [1]: 80 to 90%
SMILES: CN(C)c1cc2c(cc1-c1ccc3cc(/C=C4\SC(=S)N(CC(=O)O)C4=O)ccc3c1)C(C)(C)CCC2(C)C [Compound 7, {5-[6-(3-Dimethylamino-5,5,8,8-tetramethyl-5,6,7,8-tetrahydro-naphthalen-2-yl)-naphthalen-2-ylmethylene]-4-oxo-2-thioxo-thiazolidin-3-yl}-acetic acid]
cells killed [2]: ≤ 50%
